Source: ChEMBL document CHEMBL1158217, “Tetranortriterpenoids from Ruagea glabra” (1996)

Test system: Spodoptera frugiperda
Test: Antifeedant activity against Spodoptera frugiperda final instar larvae at 100 ppm after 18 hrs by glass fiber disk method
Format: functional
Design: unit not given here

Row | Compound | Activity
1 | C/C=C(\C)C(=O)O[C@H]1C(C)(C)[C@H](CC(=O)OC)[C@]2(C)C(=O)[C@@]1(O)[C@H]1O[C@]13[C@@H]1CC(=O)O[C@@H](c4ccoc4)[C@]1(C)CC[C@H]23 [RUAGEANIN B] | 86.3
2 | COC(=O)C[C@H]1C(C)(C)[C@H](OC(C)=O)[C@H]2C(=O)[C@]1(C)[C@H]1CC[C@]3(C)[C@@H](CC(=O)O[C@H]3c3ccoc3)[C@]13O[C@H]23 [XYLOCARPIN] | 77.8
3 | C=C1[C@@H]2CC[C@@]3(C)[C@H](c4ccoc4)OC(=O)C[C@]13O[C@H]1CC(=O)C(C)(C)[C@H](CC(=O)OC)[C@]12C [METHYLANGOLENSATE] | 66.4
4 | COC(=O)C[C@H]1C(C)(C)[C@H](OC(=O)C(C)C)[C@H]2C(=O)[C@]1(C)[C@H]1CC[C@]3(C)[C@@H](CC(=O)O[C@H]3c3ccoc3)[C@]13O[C@H]23 [RUAGEANIN A] | 72.6
